The values that follow come from patent US8410117B2, “Imidazopyrimidine derivatives” (Hoffmann-La Roche Inc., priority 2010, dated 2013).

For one data set, the target named is T1, human PDE10A (Homo sapiens, UniProt Q9Y233).
T1 construct: The human PDE10A full length assay; purchased Enzo Life Science, Lausen, Switzerland SE-534
The data set can be described thus: human PDE10A full length Scintillation Proximity Assay (SPA). As to conditions: 50 nM cGMP and 50 nM [3H]-cGMP, 20 minutes at room temperature; read-out: PDE10A inhibition IC50. The format is biochemical. An outline of the steps: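 Full-length enzyme at 3.75 ng/well in 20 mM HEPES pH 7.5, 10 mM MgCl2, 0.05 mg/ml BSA, with 50 nM cGMP plus 50 nM [3H]-cGMP substrate, 20 min at room temperature. Stopped with YSi-SPA beads in zinc sulphate and counted by scintillation. IC50 from inhibitor concentration series; no-enzyme wells define background.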

For a further data set, the system named is rats. As to conditions: sub-chronic treatment with PCP; cited from earlier work.

T1 sequence (Q9Y233 1-779 isoform Q9Y233-1): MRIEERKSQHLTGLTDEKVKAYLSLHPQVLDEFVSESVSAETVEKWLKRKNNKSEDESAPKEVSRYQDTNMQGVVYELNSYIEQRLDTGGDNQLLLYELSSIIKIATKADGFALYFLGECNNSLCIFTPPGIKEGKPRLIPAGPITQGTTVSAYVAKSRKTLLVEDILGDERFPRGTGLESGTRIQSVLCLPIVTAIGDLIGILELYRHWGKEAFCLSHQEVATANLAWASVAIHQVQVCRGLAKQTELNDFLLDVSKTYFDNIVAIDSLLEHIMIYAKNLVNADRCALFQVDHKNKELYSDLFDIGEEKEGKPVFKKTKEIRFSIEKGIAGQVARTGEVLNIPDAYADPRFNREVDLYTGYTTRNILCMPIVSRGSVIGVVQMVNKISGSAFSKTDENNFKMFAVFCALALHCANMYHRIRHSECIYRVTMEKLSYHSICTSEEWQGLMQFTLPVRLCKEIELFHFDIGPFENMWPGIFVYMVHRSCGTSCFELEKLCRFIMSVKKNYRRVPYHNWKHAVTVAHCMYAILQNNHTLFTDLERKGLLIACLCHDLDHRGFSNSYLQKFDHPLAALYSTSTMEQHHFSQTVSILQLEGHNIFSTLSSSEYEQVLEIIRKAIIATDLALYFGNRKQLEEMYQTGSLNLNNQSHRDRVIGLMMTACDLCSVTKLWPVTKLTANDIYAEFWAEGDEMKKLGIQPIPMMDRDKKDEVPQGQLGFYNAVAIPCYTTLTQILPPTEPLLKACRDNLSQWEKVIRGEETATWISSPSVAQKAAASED

For `COc1ncccc1C(=O)Nc1ccn2cc(-c3ccccc3)nc2n1` [Example 78, 2-Methoxy-N-(2-phenylimidazo[1,2-a]pyrimidin-7-yl)nicotinamide], the melting point fell in the range of 225 to 226 °C. The IC50 on human PDE10A came to 0.125 µM.

Regarding `Cc1ncc(Cl)c(C(=O)Nc2ccn3cc(-c4ccccc4)nc3n2)n1` [Example 79, 5-Chloro-2-methyl-N-(2-phenylimidazo[1,2-a]pyrimidin-7-yl)pyrimidine-4-carboxamide], the melting point was above 250 °C. Further, at human PDE10A, the IC50 stood at 0.247 µM.

With `Cc1cc(C(=O)Nc2ccn3cc(-c4ccccc4)nc3n2)ccn1` [Example 80, 2-Methyl-N-(2-phenylimidazo[1,2-a]pyrimidin-7-yl)isonicotinamide], the melting point lay within 255 to 257 °C. Further, the IC50 on human PDE10A was determined as 0.496 µM.

Regarding `Cc1cc(C(=O)Nc2ccn3cc(-c4ccccc4)nc3n2)cc(Cl)n1` [Example 81, 2-Chloro-6-methyl-N-(2-phenylimidazo[1,2-a]pyrimidin-7-yl)isonicotinamide], the melting point was in the range of 148 to 151 °C. For the same compound, the IC50 at human PDE10A came to 0.703 µM.

Turning to `Cc1oc(C2CC2)nc1CNC(=O)c1cnn(C)c1C(=O)Nc1ccn2cc(-c3ccccc3)nc2n1` [Example 165, N4-((2-cyclopropyl-5-methyloxazol-4-yl)methyl)-1-methyl-N5-(2-phenylimidazo[1,2-a]pyrimidin-7-yl)-1H-pyrazole-4,5-dicarboxamide], the IC50 on human PDE10A amounted to 0.776 µM.

In the case of `Cn1ncc(C(=O)NCc2noc(C3CC3)n2)c1C(=O)Nc1ccn2cc(-c3ccccc3)nc2n1` [Example 166, N4-((5-cyclopropyl-1,2,4-oxadiazol-3-yl)methyl)-1-methyl-N5-(2-phenylimidazo[1,2-a]pyrimidin-7-yl)-1H-pyrazole-4,5-dicarboxamide], on human PDE10A, the IC50 amounted to 0.812 µM.

For the compound `Cn1ncc(C(=O)NCc2nc(C3CC3)no2)c1C(=O)Nc1ccn2cc(-c3ccccc3)nc2n1` [Example 167, N4-((3-cyclopropyl-1,2,4-oxadiazol-5-yl)methyl)-1-methyl-N5-(2-phenylimidazo[1,2-a]pyrimidin-7-yl)-1H-pyrazole-4,5-dicarboxamide], the IC50 at human PDE10A turned out to be 0.825 µM.

As to `Cc1nc(CNC(=O)c2cnn(C)c2C(=O)Nc2ccn3cc(-c4ccccc4)nc3n2)no1` [Example 168, 1-methyl-N-4-((5-methyl-1,2,4-oxadiazol-3-yl)methyl)-N5-(2-phenylimidazo[1,2-a]pyrimidin-7-yl)-1H-pyrazole-4,5-dicarboxamide], the IC50 on human PDE10A is 0.865 µM.

Regarding `Cn1cc2c(n1)CN(C(=O)c1cnn(C)c1C(=O)Nc1ccn3cc(-c4ccccc4)nc3n1)C2` [Example 169, 1-methyl-4-(2-methyl-2,4,5,6-tetrahydropyrrolo[3,4-c]pyrazole-5-carbonyl)-N-(2-phenylimidazo[1,2-a]pyrimidin-7-yl)-1H-pyrazole-5-carboxamide], at human PDE10A, the IC50 is 0.963 µM.

Regarding `Cn1ncc(C(=O)NCc2nc3ccccc3o2)c1C(=O)Nc1ccn2cc(-c3ccccc3)nc2n1` [Example 170, N4-(benzo[d]oxazol-2-ylmethyl)-1-methyl-N5-(2-phenylimidazo[1,2-a]pyrimidin-7-yl)-1H-pyrazole-4,5-dicarboxamide], at human PDE10A, the IC50 came out at 0.969 µM.

As for `CC(C)c1noc(CNC(=O)c2cnn(C)c2C(=O)Nc2ccn3cc(-c4ccccc4)nc3n2)n1` [Example 171, N4-((3-isopropyl-1,2,4-oxadiazol-5-yl)methyl)-1-methyl-N5-(2-phenylimidazo[1,2-a]pyrimidin-7-yl)-1H-pyrazole-4,5-dicarboxamide], the IC50 at human PDE10A was determined as 0.989 µM.

As to `COc1ccc(Cc2nccc3cc(OC)c(OC)cc23)cc1OC` [papaverine, Papaverine], in the data set with rats, the “deficits in the extra-dimensional shift learning” value was “attenuate the deficits in the extra-dimensional shift learning”.
